Values quoted from earlier work, collected in US9687002B2, “Botanical antimicrobial microemulsions (BAMM)” (Indusco, Ltd., priority 2015, dated 2017).

Test system: various fungi that commonly infect toenails

Cc1ccc(C(C)C)c(O)c1 [Thymol]
effectiveness against fungi: effective
